Patent US20220323594A1, “LIPIDATED CATIONIC PEPTIDE-PEG COMPOSITIONS FOR NUCLEIC ACID DELIVERY” (NUTCRACKER THERAPEUTICS, INC., priority 2019, published 2022)

How the values were obtained:
[1] = Dynamic light scattering (DLS) of mRNA/peptoid formulations: particle size and polydispersity; type: physicochemical; settings: Fluc mRNA/peptoid formulation; for Size PDI: size polydispersity index by DLS, 5:1 mass ratio; for Size (nm): volume average particle size/diameter by DLS, 5:1 mass ratio peptoid:cargo
Procedure: To prepare nanoparticle formulations, the amino lipidated peptoid is mixed by pipetting with nucleic acid at a mass ratio between approximately 1:1 (peptoid:cargo) and 20:1. Prior to formulation, amino lipidated peptoid and nucleic acid cargo were diluted in ethanol and acidic buffer (PBS adjusted to pH 5.5 with 0.1 M HCl) respectively to a volume ratio of 1:3 and to target a final cargo concentration of approximately 0.05 mg/mL to 0.2 mg/mL. The exemplary amino lipidated cationic peptoids described in Example 2 were combined with firefly luciferase (Fluc) mRNA to form nanoparticle compositions to be evaluated for therapeutic and/or prophylactic purposes in vitro or in vivo. The formulations were prepared according to the protocol of Example 3 and mixed by simple pipetting. The mRNA/peptoid formulation at a 5:1 mass ratio of peptoid:cargo were evaluated by dynamic light scattering (DLS) in order to determine the volume average particle size/diameter (nm) of the mRNA/peptoid complex and the size polydispersity index (PDI) within the formulation. The percentage of mRNA encapsulation for each formulation of the exemplary compounds were determined by fluorescence of the Qubit RNA HS (Invitrogen) dye before and after lysis of particles by Triton X-100.

[2] = mRNA encapsulation by fluorescence of Qubit RNA HS dye before and after lysis with Triton X-100; type: physicochemical; settings: percentage of mRNA encapsulation; Fluc mRNA/peptoid formulation, 5:1 mass ratio
Summary of the method: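 Peptoid/Fluc mRNA nanoparticles were formed by pipette mixing at a 5:1 peptoid:mRNA mass ratio. Percent encapsulation came from Qubit RNA HS dye fluorescence before versus after particle lysis with Triton X-100.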

HeLa cells [3] = assay: In vitro Fluc expression with variable peptoid:mRNA mass ratio, 2% DMG-PEG2000; type: cell-based; settings: 24 h; for Observed Luciferase Expression (RLU) for Given Formulation Mass Ratio 2:1: 2% (w/w) DMG-PEG2000, peptoid:mRNA 2:1; for Observed Luciferase Expression (RLU) for Given Formulation Mass Ratio 3.5:1: 2% (w/w) DMG-PEG2000, peptoid:mRNA 3.5:1; for Observed Luciferase Expression (RLU) for Given Formulation Mass Ratio 5:1: 2% (w/w) DMG-PEG2000, peptoid:mRNA 5:1; for Observed Luciferase Expression (RLU) for Given Formulation Mass Ratio 7.5:1: 2% (w/w) DMG-PEG2000, peptoid:mRNA 7.5:1
Summary of the method: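 Fluc mRNA particles formulated at 2:1, 3.5:1, 5:1 and 7.5:1 peptoid:mRNA (w/w), with DMG-PEG2000 at 2% (w/w) relative to amino lipidated peptoid. HeLa cells treated for 24 hours; Fluc expression read as bioluminescence (RLU).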

HeLa cells [4] = assay: In vitro expression of firefly luciferase (Fluc) after treatment with Fluc mRNA/amino lipidated peptoid formulations, no PEG or 2% DMG-PEG2000; type: cell-based
Summary of the method: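 Peptoid/Fluc mRNA particles (5:1 w/w), without PEG or with DMG-PEG2000 pre-mixed into peptoid at 2% w/w, dosed at 100 ng mRNA/well on HeLa cells. Luciferase luminescence (RLU) read after 6 h and 24 h.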

[5] = MTT viability assay after treatment with Fluc mRNA/amino lipidated peptoid formulations; type: cell-based; settings: human, HeLa cells
Summary of the method: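 Formulations (peptoid:mRNA 5:1 mass ratio, 2% w/w DMG-PEG2000) were applied at 100 ng Fluc mRNA per well for 8 h, followed by 48 h of growth. Cells then received 1.5 mg/mL MTT for 2 h, and formazan signal was normalized to untreated cells.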

[6] = no PEG, peptoid:Fluc mRNA 5:1 w/w, 100 ng/well, 6 h of treatment
[7] = no PEG, peptoid:Fluc mRNA 5:1 w/w, 100 ng/well, 24 h of treatment
[8] = with 2% (w/w) DMG-PEG2000, peptoid:mRNA 5:1, 6 h after treatment
[9] = with 2% (w/w) DMG-PEG2000, peptoid:mRNA 5:1, 24 h after treatment

SMILES	Size PDI [1]	Size (nm) [1]	% Encapsulation [2]	Observed Luciferase Expression (RLU) for Given Formulation Mass Ratio 2:1 (HeLa cells [3])	Observed Luciferase Expression (RLU) for Given Formulation Mass Ratio 3.5:1 (HeLa cells [3])	Observed Luciferase Expression (RLU) for Given Formulation Mass Ratio 5:1 (HeLa cells [3])	Observed Luciferase Expression (RLU) for Given Formulation Mass Ratio 7.5:1 (HeLa cells [3])	Luciferase Expression (RLU) 6 h (HeLa cells [4]; [6])	Luciferase Expression (RLU) 24 h (HeLa cells [4]; [7])	Luciferase Expression (RLU) 6 h (HeLa cells [4]; [8])	Luciferase Expression (RLU) 24 h (HeLa cells [4]; [9])	viability at 8 h, 500 ng/well ([5]; Relative Viability (%) 2% PEG)	viability at 8 h, 500 ng/well ([5]; Relative Viability (%) No PEG)
CCCCCCCCCCN(CC(N)=O)C(=O)CN(CCCCCCCCCC)C(=O)CN(CCc1ccccc1)C(=O)CN(CCN)C(=O)CN(CCc1ccccc1)C(=O)CN(CCN)C(=O)CN(CCc1ccccc1)C(=O)CNCCN [Compound 13]	0.447	822.6 nm	90.4%	2.68E+01 RLU	1.74E+01 RLU	1.39E+02 RLU	5.36E+00 RLU	3.67E+00 RLU	9.67E+00 RLU	3.27E+01 RLU	2.67E+00 RLU	85.9%	90.2%
CCCCCCCCCCN(CC(N)=O)C(=O)CN(CCCCCCCCCC)C(=O)CN(CCN)C(=O)CN(CCN)C(=O)CN(CCN)C(=O)CN(CCN)C(=O)CNCCN [Compound 15]	1	1064 nm	76.9%	8.85E+01 RLU	3.62E+01 RLU	2.01E+01 RLU	6.70E+00 RLU	3.93E+01 RLU	1.90E+01 RLU	5.33E+00 RLU	5.33E+00 RLU	91.9%	91.2%
CCCCCCCCCCN(CC(N)=O)C(=O)CN(CCCCCCCCCC)C(=O)CN(CCN)C(=O)CN(CCN)C(=O)CN(CCN)C(=O)CN(CCN)C(=O)CN(CCN)C(=O)CN(CCN)C(=O)CN(CCN)C(=O)CN(CCN)C(=O)CNCCN [Compound 16]	1	1486 nm	85.4%	1.01E+02 RLU	4.16E+01 RLU	2.55E+01 RLU	1.47E+01 RLU	7.33E+00 RLU	1.67E+01 RLU	2.63E+01 RLU	5.00E+00 RLU	90.8%	89.4%
CCCCCCCCCCN(CC(=O)N(CCN)CC(=O)N(CCc1ccccc1)CC(=O)N(CCc1ccccc1)CC(=O)N(CCCCCCCCCC)CC(=O)N(CCN)CC(=O)N(CCc1ccccc1)CC(=O)N(CCc1ccccc1)CC(N)=O)C(=O)CN(CCc1ccccc1)C(=O)CN(CCc1ccccc1)C(=O)CNCCN [Compound 17]	0.37	472.8 nm	90.3%	2.72E+03 RLU	1.56E+03 RLU	1.60E+03 RLU	3.75E+01 RLU	6.84E+02 RLU	5.63E+02 RLU	8.67E+01 RLU	1.80E+02 RLU	91.7%	88%
CCCCCCCCCCNCC(=O)N(CCN)CC(=O)N(CCc1ccccc1)CC(=O)N(CCc1ccccc1)CC(=O)N(CCN)CC(=O)N(CCc1ccccc1)CC(=O)N(CCc1ccccc1)CC(=O)N(CCN)CC(=O)N(CCc1ccccc1)CC(=O)N(CCc1ccccc1)CC(=O)N(CCCCCCCCCC)CC(N)=O [Compound 18]	0.762	593 nm	88.5%	1.53E+03 RLU	3.00E+03 RLU	9.99E+02 RLU	2.41E+01 RLU	5.74E+02 RLU	8.49E+02 RLU	8.50E+01 RLU	1.22E+02 RLU	89.3%	86.1%
CCCCCCCCCCN(CC(N)=O)C(=O)CN(CCCCCCCCCC)C(=O)CN(CCCCCCCCCC)C(=O)CN(CCCCCCCCCC)C(=O)CN(CCCCCCCCCC)C(=O)CN(CCc1ccccc1)C(=O)CN(CCc1ccccc1)C(=O)CN(CCN)C(=O)CN(CCc1ccccc1)C(=O)CN(CCc1ccccc1)C(=O)CNCCN [Compound 20]	0.37	326.6 nm	72.2%	1.31E+03 RLU	2.47E+04 RLU	1.31E+04 RLU	2.27E+04 RLU	9.91E+03 RLU	1.55E+04 RLU	1.75E+04 RLU	1.36E+04 RLU	93%	87.1%
CCCCCCCCCCN(CC(N)=O)C(=O)CN(CCCCCCCCCC)C(=O)CN(CCCCCCCCCC)C(=O)CN(CCCCCCCCCC)C(=O)CN(CCCCCCCCCC)C(=O)CN(CCCCCCCCCC)C(=O)CN(CCc1ccccc1)C(=O)CN(CCc1ccccc1)C(=O)CN(CCN)C(=O)CN(CCc1ccccc1)C(=O)CN(CCc1ccccc1)C(=O)CN(CCN)C(=O)CN(CCc1ccccc1)C(=O)CN(CCc1ccccc1)C(=O)CNCCN [Compound 22]	0.538	748.2 nm	65.4%	3.53E+01 RLU	8.83E+01 RLU	2.50E+02 RLU	5.80E+02 RLU	6.63E+01 RLU	6.77E+01 RLU	9.23E+01 RLU	2.13E+01 RLU	118%	104%
